Measurements reported in US20050272707A1, “Method for preventing or reducing secondary fractures after hip fracture” (priority 2002, published 2005).
Entries after “also recorded” stand apart in the source; their conditions may differ.

Legend:
bone resorption [1] = details: cited from earlier work
bone resorption [2] = details: variety of assays of bone metabolism; cited from earlier work
[3] = tested on: subsequent osteoporotic fractures after hip fracture; test: placebo-controlled study of intravenous zoledronic acid in preventing subsequent osteoporotic fractures after a hip fracture; format: in vivo, human patients; details: patients after recent surgical repair of hip fracture; 5 mg i.v. once per year plus vitamin D and calcium vs vitamin D and calcium alone; 12 and 24 months
Source text: “A Multinational, multicenter, double-blind, randomized, placebo-controlled, parallel-group study assessing the efficacy of intravenous zoledronic acid in preventing subsequent osteoporotic fractures after a hip fracture” is undertaken.
This will be a multicenter, randomized, double-blind, placebo-controlled, parallel group trial in men and women. Patients undergoing recent surgical repair of a low-trauma hip fracture will be eligible for enrollment. There will be at least 3 study contacts with patients after randomization within the first 24 months. Patients will have additional visits annually until 211 patients have reached the primary endpoint. The final visit for patients will be contingent on when this endpoint is achieved. Once the endpoint is achieved all patients will need to come in for a final visit. The final visit will be no less than 30 days from the patient's last dose of study medication or no more than 90 days after the day 211 patients have reached the primary endpoint. […]
The primary efficacy endpoint is time to first clinical fracture. Between treatment differences will be evaluated using a log-rank test to compare the time to clinical fracture between the two treatment groups. […]

[4] = stability of diluted infusion solution; format: physicochemical; details: diluted with infusion media, 2-8° C.
Procedure: The cumulative time between dilution with infusion media, storage in a refrigerator and end of administration must not be longer than 24 hours. Ideally, diluted zoledronic acid solutions should be used immediately. However, if diluted zoledronic acid solutions cannot be used immediately, the solutions must be refrigerated at temperatures between 2-8° C. Before administration, the solution should be allowed to slowly warm to room temperature again.

Structure (SMILES): O=P(O)(O)C(O)(Cn1ccnc1)P(=O)(O)O [zoledronic acid, 1-hydroxy-2-(imidazol-1-yl)ethane-1,1-diphosphonic acid]
- untoward effects on bone formation or mineralization (bone resorption [1]; at 0.3-30 nM in vitro and 0.3-30 μg/kg in vivo): without exerting any untoward effects on either bone formation or mineralization
- doses at which inhibition of bone resorption in vivo was demonstrated (bone resorption [1]; in vivo): 0.3 to 30 µg/kg
- concentrations at which inhibition of bone resorption in vitro was demonstrated (bone resorption [2]): 0.3 to 30 nM
- rate of subsequent (secondary) osteoporotic fractures [3]: significant reduction in secondary osteoporotic fractures; also recorded: significantly reduces the rate of all subsequent osteoporotic skeletal fractures
- stability of diluted infusion solutions [4]: at least 24 hours
